Assay results published in patent publication US20160375155A1, “Collagen Imaging Compositions” (Collagen Medical, LLC, priority 2015, published 2016).
Like-named read-outs stand apart in the source and are kept apart here. Bridge positions count the residues as written; N and C are the ends. Square brackets hold non-standard residues; d marks the D form. Peptide text beside a SMILES is read from it. * marks the point of attachment. X1 = O=C(O)CN1CCN(CC(=O)O)CCN([C@H](CCC(=O)*)C(=O)O)CCN(CC(=O)O)CC1; Bip = N[C@@H](Cc1ccc(-c2ccccc2)cc1)C(=O)O

What was measured:
[1] = molecular target: Native canine Collagen Type I and III protein; test: Collagen binding assay, dried dog collagen plate; settings: 37° C., pH 7.4; collagen 5 μM; fit to 1 binding site
Experimental: Canine collagen (Native canine Collagen Type I and III protein, YO protein AB, cat#739) is dissolved in 0.5 M acetic acid at 3.3 mg/ml by vortexing and shaking overnight at 4° C. The solution is then dialyzed against 10 mM Phosphate (NaH2PO4), pH 4.2 at 4° C. with three changes of the dialysis buffer.
Ice-cold 1×PBS pH 10.8 is added to the collagen solution for a final collagen concentration of 10 μM, pH 7.4. Collagen solutions are gelled and dried down in the wells of a 96 well microtiter plate (Corning Polystyrene Flat Bottom, cat#3641). 70 μl of 10 μM collagen is aliquoted into each well in every other lane in the plate (48 wells) and the plate is incubated at 37° C. for 18 hours to form a gel and evaporate to dryness. Ungelled collagen is removed by washing the collagen films with 200 μl 1×PBS pH 7.4 (four times, 15 min per wash). The thin collagen fibril film remains, coating the bottom of each well. After washing by PBS the plate is again dried at 37° C. for 2 hours and is stored at −20° C. The final well content of gelled collagen is measured by determination of hydroxyproline and is around 180 μg/ml.
a serial dilution of 0.2 μM-30 μM of the peptide chelate is prepared in PBS, pH 7.4 (˜300 μL of solution for each concentration). 90 μl of each concentration is also reserved in a HPLC glass vial as a sample to measure the total concentration. 140 μL of each dilution of peptide chelate is added to wells containing and non-containing collagen (control for nonspecific plastic binging). The plate is then incubated on a shaker table (300 rpm) for 2 hours at room temperature to allow the compound to bind. […] The concentration of free, unbound compound in the sample supernatants and the concentration of compound in the reserved (total) sample are determined by ICP-MS (Agilent 7500, gadolinium concentration). The concentration of compound bound to collagen is determined as [bound]=[total]−[unbound].
(§1) The binding of compounds to human, rat and dog collagen (5 μM) was measured over the concentration range 0.2-5 μM of Comp ID Nos.: 1-4. […]

[2] = Relaxivity in PBS (Bruker mq60, 60 MHz); type: physicochemical; settings: pH 7.4 PBS at 1.4 T, 37° C.
Experimental: The relaxivity of Compound ID Nos. 1, 2 and 4 were determined in PBS at 37° C. using a Bruker mq60 spectrometer operating at 60 MHz (1.4 tesla). Samples were equilibrated at concentrations ranging from 0-200 μM for at least 30 minutes at 37° C. T1 was measured using an inversion recovery sequence. Relaxivities were calculated by subtracting the relaxation rate of the buffer […] and then dividing the result by the concentration of Compound.

[3] = tested on: acute and chronic myocardial infarct (fibrosis); type: in vivo, canine; settings: for CNR between infarct and blood: Compound ID No. 1 0.0075 mmol/kg, extracellular gadolinium 0.2 mmol/kg
Source text: An experimental protocol was developed to test the ability of Compound ID No. 1 to differentiate acute from chronic myocardial infarction in an in-vivo large animal (canine) model. In this model, early following acute myocardial infarction, pathologic fibrosis has not fully developed within the infarct zone (fibrosis-poor), whereas in chronic MI (˜8 weeks following MI), dense fibrosis fully replaced necrotic myocardium (fibrosis-rich).
In the myocardial fibrosis canine model, a vascular occluder was placed surgically around the left anterior descending coronary artery (LAD) to allow occlusion and reperfusion. Two animals were studied following acute MI and two additional animals were studied both following acute MI, and chronically at 8 weeks. The LAD vessel was completely occluded for 70-90 minutes and then released to allow reperfusion. The chest was sutured closed, and the animal was allowed to recover. Imaging was performed on a 3 T clinical scanner in an acute (<1 week, minimal fibrosis expected in acute necrosis) and chronic (8 weeks, healing complete, necrotic myocardium replaced by dense collagenous scar) time point after infarction. For each time point, the animals undergo 2 scans separated by 48 hours with conventional gadolinium contrast (0.2 mmol/kg GdDTPA) and Compound ID No. 1 (0.0075 mmol/kg).
Imaging was performed on a 3 T clinical scanner (Siemens Verio). Breath holding was achieved by temporarily turning off the animal ventilator, and all images were ECG gated. Standard short and long axis cine imaging was performed throughout the left ventricle to identify left ventricular function and regional wall motion abnormalities. Delayed enhancement imaging (segmented 2D inversion recovery gradient echo) was performed prior to and serially following Compound ID No. 1 administration. Two strategies were employed: (1) a fixed inversion time was chosen to null pre-contrast myocardium (TI˜650 ms), and (2) a variable inversion time set to null post-contrast myocardium as is performed in traditional delayed enhancement imaging.
After imaging, animals were euthanized and post mortem analysis of myocardium was performed. Tissue was assessed grossly by histopathologic staining with triphenyltetrazolium chloride for myocardial infarction, and microscopically with Masson's trichrome staining for fibrosis. Additionally quantitative tissue analysis for hydroxyproline was used to measure total collagen content in tissue and compared to tissue gadolinium concentration by inductively coupled plasma-mass spectrometry. MR data was analyzed quantitatively for conspicuity of infarction and image quality as well as contrast to noise ratio (CNR) for infarct-normal myocardium and infarct-blood.

[4] = molecular target: T1, rat collagen (acid soluble, type I, rat tail) (Rattus norvegicus, UniProt P02454+P02466); test: Collagen binding assay, dried rat collagen plate; settings: 37° C., pH 7.4; collagen 5 μM; fit to 1 binding site
T1 construct: rat collagen (acid soluble, type I, rat tail, Millipore Inc, cat#08-115); purchased Millipore Inc 08-115; host or cells: rat tail
T1 sequence (P02454 152-1207 limits assumed): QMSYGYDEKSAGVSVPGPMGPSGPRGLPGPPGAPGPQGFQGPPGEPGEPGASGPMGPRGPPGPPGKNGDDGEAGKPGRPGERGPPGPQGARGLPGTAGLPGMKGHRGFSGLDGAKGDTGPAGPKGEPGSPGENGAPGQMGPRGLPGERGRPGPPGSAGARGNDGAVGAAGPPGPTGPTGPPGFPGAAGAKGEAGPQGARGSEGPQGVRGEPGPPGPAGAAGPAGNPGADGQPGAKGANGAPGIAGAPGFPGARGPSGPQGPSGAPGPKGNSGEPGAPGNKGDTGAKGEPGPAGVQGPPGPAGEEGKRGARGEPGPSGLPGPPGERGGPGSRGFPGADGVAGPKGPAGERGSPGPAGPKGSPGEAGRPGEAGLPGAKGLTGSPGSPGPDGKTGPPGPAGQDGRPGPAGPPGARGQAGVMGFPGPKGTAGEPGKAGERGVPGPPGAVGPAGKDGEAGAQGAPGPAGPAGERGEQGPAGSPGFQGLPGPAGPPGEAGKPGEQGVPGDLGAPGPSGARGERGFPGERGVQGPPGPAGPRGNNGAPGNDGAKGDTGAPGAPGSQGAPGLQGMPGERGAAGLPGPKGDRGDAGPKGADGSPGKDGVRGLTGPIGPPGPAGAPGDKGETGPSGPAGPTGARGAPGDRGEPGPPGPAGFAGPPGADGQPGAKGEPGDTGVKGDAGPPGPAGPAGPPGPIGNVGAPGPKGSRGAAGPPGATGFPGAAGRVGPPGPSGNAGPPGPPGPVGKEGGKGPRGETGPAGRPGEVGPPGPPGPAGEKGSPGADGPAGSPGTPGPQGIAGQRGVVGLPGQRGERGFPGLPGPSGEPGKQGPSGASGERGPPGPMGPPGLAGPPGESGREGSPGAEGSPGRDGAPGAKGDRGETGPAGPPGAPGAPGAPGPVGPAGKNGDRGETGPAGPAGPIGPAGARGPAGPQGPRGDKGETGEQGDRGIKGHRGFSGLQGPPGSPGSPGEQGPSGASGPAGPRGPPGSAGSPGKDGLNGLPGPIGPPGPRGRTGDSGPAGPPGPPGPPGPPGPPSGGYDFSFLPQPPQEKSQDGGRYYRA
T1 sequence (P02466 86-1125 limits assumed): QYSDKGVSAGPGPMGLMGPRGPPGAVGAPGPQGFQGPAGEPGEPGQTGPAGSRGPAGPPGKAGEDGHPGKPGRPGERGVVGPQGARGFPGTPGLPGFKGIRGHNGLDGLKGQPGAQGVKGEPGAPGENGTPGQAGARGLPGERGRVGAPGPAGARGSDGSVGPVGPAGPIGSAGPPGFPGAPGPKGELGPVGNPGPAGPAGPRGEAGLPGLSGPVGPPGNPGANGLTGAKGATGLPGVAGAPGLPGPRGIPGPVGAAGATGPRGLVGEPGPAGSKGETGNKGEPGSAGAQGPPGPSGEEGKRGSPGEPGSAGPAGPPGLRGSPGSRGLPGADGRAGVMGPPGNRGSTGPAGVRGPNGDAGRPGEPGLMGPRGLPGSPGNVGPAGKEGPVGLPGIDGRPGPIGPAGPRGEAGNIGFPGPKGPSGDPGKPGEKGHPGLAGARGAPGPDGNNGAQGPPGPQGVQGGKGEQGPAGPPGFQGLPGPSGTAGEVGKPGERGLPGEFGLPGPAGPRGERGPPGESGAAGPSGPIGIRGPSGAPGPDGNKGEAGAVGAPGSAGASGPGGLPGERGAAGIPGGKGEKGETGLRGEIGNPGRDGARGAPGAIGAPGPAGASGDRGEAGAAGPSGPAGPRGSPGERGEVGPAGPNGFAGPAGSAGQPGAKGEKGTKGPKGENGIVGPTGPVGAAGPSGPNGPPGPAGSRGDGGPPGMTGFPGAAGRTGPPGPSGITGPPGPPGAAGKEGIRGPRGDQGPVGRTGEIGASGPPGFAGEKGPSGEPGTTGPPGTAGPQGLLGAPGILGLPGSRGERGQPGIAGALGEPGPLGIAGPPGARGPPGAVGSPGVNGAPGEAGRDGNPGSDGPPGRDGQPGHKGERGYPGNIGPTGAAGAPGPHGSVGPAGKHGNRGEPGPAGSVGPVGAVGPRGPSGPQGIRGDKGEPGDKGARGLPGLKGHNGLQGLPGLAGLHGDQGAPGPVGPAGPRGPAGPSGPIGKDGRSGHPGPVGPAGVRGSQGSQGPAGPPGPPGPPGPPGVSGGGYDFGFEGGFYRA
Experimental: 10 ml of a 3.79 mg/mL solution of rat collagen (acid soluble, type I, rat tail, Millipore Inc, cat#08-115) is dialyzed against 10 mM Phosphate (NaH2PO4), pH 4.2 at 4° C. with three changes of the dialysis buffer.
Ice-cold 1×PBS pH 10.8 is added to the collagen solution for a final collagen concentration of 10 μM, pH 7.4. Collagen solutions are gelled and dried down in the wells of a 96 well microtiter plate (Corning Polystyrene Flat Bottom, cat#3641). 70 μl of 10 μM collagen is aliquoted into each well in every other lane in the plate (48 wells) and the plate is incubated at 37° C. for 18 hours to form a gel and evaporate to dryness. […] The final well content of gelled collagen is measured by determination of hydroxyproline and is around 180 μg/ml.
(§2) a serial dilution of 0.2 μM-30 μM of the peptide chelate is prepared in PBS, pH 7.4 (˜300 μL of solution for each concentration). […] The concentration of free, unbound compound in the sample supernatants and the concentration of compound in the reserved (total) sample are determined by ICP-MS (Agilent 7500, gadolinium concentration). The concentration of compound bound to collagen is determined as [bound]=[total]−[unbound].
as §1

myocardial collagen = settings: rat MI model, healthy and infarcted heart
Experimental: Myocardial infarction was induced in Sprague Dawley rats by occlusion of the left anterior descending coronary artery followed by reperfusion. The rats were anesthetized with an intraperitoneal (i.p.) injection of 100 μg pentobarbital sodium per gram body weight and a thorocotamy was performed. The pericardium was removed and the left anterior artery was sutured with a 7.0 silk suture for 60 minutes after which reperfusion was established.
Animals were sacrificed at 60 minutes post-injection and the heart removed and sectioned for analysis.
The slope for this correlation is a measure of efficacy.

human type I collagen = molecular target: T2, human type I collagen (Homo sapiens, UniProt P02452+P08123); test: Collagen binding assay, dried human collagen plate; settings: 37° C., pH 7.4; collagen 5 μM; fit to 1 binding site
T2 construct: purchased Advanced Biomatrix 5007-A
T2 sequence (P02452 162-1218 limits assumed): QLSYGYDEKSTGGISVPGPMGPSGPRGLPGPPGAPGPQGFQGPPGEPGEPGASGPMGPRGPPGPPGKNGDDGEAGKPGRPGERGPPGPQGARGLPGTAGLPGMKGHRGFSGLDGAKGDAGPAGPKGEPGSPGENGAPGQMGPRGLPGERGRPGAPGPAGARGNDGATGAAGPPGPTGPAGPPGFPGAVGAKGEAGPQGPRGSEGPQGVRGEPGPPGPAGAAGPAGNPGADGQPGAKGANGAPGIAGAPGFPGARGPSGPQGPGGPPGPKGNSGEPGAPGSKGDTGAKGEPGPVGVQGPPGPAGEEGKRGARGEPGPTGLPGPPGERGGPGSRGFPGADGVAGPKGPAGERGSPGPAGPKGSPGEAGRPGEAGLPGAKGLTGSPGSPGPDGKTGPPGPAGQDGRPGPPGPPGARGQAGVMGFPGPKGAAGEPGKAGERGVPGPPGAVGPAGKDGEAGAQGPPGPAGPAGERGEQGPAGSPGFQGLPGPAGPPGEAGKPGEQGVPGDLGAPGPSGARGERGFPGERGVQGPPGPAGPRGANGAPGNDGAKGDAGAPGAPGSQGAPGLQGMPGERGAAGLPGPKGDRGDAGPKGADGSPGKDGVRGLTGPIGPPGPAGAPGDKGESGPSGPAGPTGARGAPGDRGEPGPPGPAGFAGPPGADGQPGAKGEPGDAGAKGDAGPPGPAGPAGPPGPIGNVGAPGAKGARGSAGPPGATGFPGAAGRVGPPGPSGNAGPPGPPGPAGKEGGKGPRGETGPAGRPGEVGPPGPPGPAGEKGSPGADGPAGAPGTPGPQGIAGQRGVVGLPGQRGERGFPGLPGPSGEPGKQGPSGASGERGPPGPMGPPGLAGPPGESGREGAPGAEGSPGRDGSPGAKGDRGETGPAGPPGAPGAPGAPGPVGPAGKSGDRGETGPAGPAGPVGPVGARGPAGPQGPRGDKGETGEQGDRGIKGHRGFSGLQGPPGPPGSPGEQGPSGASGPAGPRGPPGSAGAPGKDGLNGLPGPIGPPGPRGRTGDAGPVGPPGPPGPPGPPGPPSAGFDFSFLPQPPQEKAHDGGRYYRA
T2 sequence (P08123 80-1119 limits assumed): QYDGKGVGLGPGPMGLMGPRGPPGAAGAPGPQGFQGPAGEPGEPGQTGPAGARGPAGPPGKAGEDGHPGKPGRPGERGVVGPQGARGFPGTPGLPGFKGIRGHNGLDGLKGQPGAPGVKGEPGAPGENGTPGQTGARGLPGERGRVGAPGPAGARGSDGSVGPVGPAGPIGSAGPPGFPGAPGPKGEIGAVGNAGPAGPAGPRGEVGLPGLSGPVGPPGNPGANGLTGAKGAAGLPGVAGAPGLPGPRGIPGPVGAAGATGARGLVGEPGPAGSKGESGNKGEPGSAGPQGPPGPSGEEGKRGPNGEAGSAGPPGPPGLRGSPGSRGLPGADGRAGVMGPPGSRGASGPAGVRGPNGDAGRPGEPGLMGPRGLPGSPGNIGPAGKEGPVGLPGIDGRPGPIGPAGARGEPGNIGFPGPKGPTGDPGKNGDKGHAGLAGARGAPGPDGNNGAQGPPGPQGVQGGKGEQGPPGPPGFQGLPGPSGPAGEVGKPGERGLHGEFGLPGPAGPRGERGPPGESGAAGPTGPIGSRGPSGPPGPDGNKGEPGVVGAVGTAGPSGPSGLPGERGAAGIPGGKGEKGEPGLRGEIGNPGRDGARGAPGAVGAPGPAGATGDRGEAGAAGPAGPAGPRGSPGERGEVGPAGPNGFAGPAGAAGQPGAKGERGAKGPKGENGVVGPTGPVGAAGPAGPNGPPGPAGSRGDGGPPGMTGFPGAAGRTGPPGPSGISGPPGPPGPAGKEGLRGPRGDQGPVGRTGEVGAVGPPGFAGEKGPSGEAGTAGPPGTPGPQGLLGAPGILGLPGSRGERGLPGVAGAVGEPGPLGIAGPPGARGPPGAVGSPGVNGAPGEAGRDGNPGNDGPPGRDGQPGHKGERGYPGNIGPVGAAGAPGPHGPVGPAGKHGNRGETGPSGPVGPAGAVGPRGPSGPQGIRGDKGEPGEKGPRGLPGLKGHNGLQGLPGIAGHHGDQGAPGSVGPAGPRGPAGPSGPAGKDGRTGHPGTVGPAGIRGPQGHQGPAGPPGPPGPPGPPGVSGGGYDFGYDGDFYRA
Experimental: 10 ml of a solution of 3 mg/ml of human type I collagen (VitroCol solution, Advanced Biomatrix, cat#5007-A) is dialyzed against 10 mM Phosphate (NaH2PO4), pH 4.2 at 4° C. with three changes of the dialysis buffer. The protein concentration is determined by liquid chromatography determination of hydroxyproline (P. Hutson, J. Chromatogr. B, 791 (2003) 427-430).
Ice-cold 1×PBS pH 10.8 is added to the collagen solution for a final collagen concentration of 10 μM, pH 7.4. Collagen solutions are gelled and dried down in the wells of a 96 well microtiter plate (Corning Polystyrene Flat Bottom, cat#3641). […] The final well content of gelled collagen is measured by determination of hydroxyproline and is around 180 μg/ml.
as §2, §1

Row | Compound | Kd [1] [µM] | R1 (relaxivity) [2] [mM⁻¹ s⁻¹] | MR image uptake in scar vs healthy myocardium ([3]; chronic myocardial infarction, FIG. 25b) | Kd [4] [µM] | calculated slope, hydroxyproline vs. gadolinium concentration (myocardial collagen) | Kd (human type I collagen) [µM] | CNR between infarct and blood ([3]; acute MI) | CNR between infarct and blood ([3]; chronic MI (8 weeks))
1 | CC(C)C[C@H](NC(=O)[C@@H]1CSSC[C@H](NC(=O)[C@H](Cc2c[nH]cn2)NC(=O)[C@H](Cc2c[nH]c3ccccc23)NC(=O)[C@H](CCCCNC(=O)CC[C@H](C(=O)O)N2CCN(CC(=O)O)CCN(CC(=O)O)CCN(CC(=O)O)CC2)NC(=O)CC[C@H](C(=O)O)N2CCN(CC(=O)O)CCN(CC(=O)O)CCN(CC(=O)O)CC2)C(=O)N[C@@H]([C@@H](C)O)C(=O)N[C@@H]([C@@H](C)O)C(=O)N[C@@H](CCCCNC(=O)CC[C@H](C(=O)O)N2CCN(CC(=O)O)CCN(CC(=O)O)CCN(CC(=O)O)CC2)C(=O)N[C@@H](Cc2ccccc2)C(=O)N2CCC[C@H]2C(=O)N[C@@H](Cc2c[nH]cn2)C(=O)N[C@@H](Cc2c[nH]cn2)C(=O)N[C@@H](Cc2ccc(O)cc2)C(=O)N1)C(=O)N[C@@H](Cc1ccc(O)cc1)C(=O)N[C@@H](Cc1ccc(-c2ccccc2)cc1)C(N)=O [Compound ID No. 2] (X1-K(X1)WHCTTK(X1)FPHHYCLY[Bip]-NH2; disulfide 4-13) | 4.9 | 42.9 | early uptake | 20.6 | 3184 | 4.9 | – | –
2 | CC(C)[C@H](NC(=O)[C@@H]1CSSC[C@H](NC(=O)[C@H](Cc2c[nH]cn2)NC(=O)[C@H](Cc2c[nH]c3ccccc23)NC(=O)[C@H](CCCCNC(=O)CC[C@H](C(=O)O)N2CCN(CC(=O)O)CCN(CC(=O)O)CCN(CC(=O)O)CC2)NC(=O)CC[C@H](C(=O)O)N2CCN(CC(=O)O)CCN(CC(=O)O)CCN(CC(=O)O)CC2)C(=O)N[C@@H](Cc2ccc(O)cc2)C(=O)N[C@@H]([C@@H](C)O)C(=O)N[C@@H](CCCCNC(=O)CC[C@H](C(=O)O)N2CCN(CC(=O)O)CCN(CC(=O)O)CCN(CC(=O)O)CC2)C(=O)N[C@@H](Cc2ccccc2)C(=O)N2CCC[C@H]2C(=O)N[C@@H](Cc2c[nH]cn2)C(=O)N[C@@H](Cc2c[nH]cn2)C(=O)N[C@@H](Cc2ccc(O)cc2)C(=O)N1)C(=O)N[C@@H](Cc1ccc(O)cc1)C(=O)N[C@@H](Cc1ccc(-c2ccccc2)cc1)C(N)=O [Compound ID No. 4] (X1-K(X1)WHCYTK(X1)FPHHYCVY[Bip]-NH2; disulfide 4-13) | 2 | 51.2 | – | 4.6 | 3057 | 9.6 | – | –
3 | O=C([O-])CN(CCN(CC(=O)[O-])CC(=O)O)CCN(CC(=O)[O-])CC(=O)O.[Gd+3] [extracellular gadolinium, gadolinium diethylenetriaminepentaacetate, reference compound] | – | – | – | – | – | – | 6.3±3.4 | 5±1.3
